ChEMBL document CHEMBL1201862, “PubChem BioAssay data set” (2004)
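Briefly, cells in 96-well plates were exposed to five compound concentrations for 48 h, and endpoints were estimated by linear interpolation. GI50 marks 50% less growth.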 Calls of active or inactive are those of the source. Rule as the data show it: active = GI50 up to about 1.1 µM and inactive = higher. Starred links: 1 amine or outer side, 2 acyl side, 3 side chain; linkers in the order of their positions; H or OH if unused. Non-standard residues stand in square brackets, D forms with d. Residues, ends and D or L forms follow the SMILES beside them. *: point of attachment. X34 = CC(=O)N(C)SCC(N[*:1])C(=O)[*:2]; Cbz = O=C(OCc1ccccc1)*; Bn = c1ccc(C*)cc1; For = O=C*

Key:
Assay in all cases: NCI-60 cell line screen, 48 h
Hs-578T = system: Hs-578T
UO-31 = system: UO-31
SR = system: SR
NCI-H522 = system: NCI-H522
HL-60 = system: HL-60
SF-539 = system: SF-539
NCI/ADR-RES = system: NCI/ADR-RES
SNB-75 = system: SNB-75
LOX IMVI = system: LOX IMVI
A549 = system: A549
OVCAR-5 = system: OVCAR-5
HCT-116 = system: HCT-116
IGROV-1 = system: IGROV-1
OVCAR-4 = system: OVCAR-4
SF-295 = system: SF-295
EKVX = system: EKVX
Malme-3M = system: Malme-3M
MDA-MB-231 = system: MDA-MB-231
BT-549 = system: BT-549
T47D = system: T47D

Measured: GI50

CCSc1nc(N2CCOCC2)c2cn[nH]c2n1
inactive: Hs-578T 33.9 µM | UO-31 21.5 µM | SR 56.1 µM | NCI-H522 35 µM | HL-60 > 100 µM | SF-539 > 100 µM | NCI/ADR-RES > 100 µM | SNB-75 71.1 µM | LOX IMVI 32.4 µM | A549 76.9 µM | OVCAR-5 77.4 µM | HCT-116 > 100 µM | IGROV-1 9.64 µM | OVCAR-4 62.5 µM | SF-295 54.8 µM | EKVX > 100 µM | Malme-3M > 100 µM | MDA-MB-231 > 100 µM | BT-549 82.2 µM | T47D 9.73 µM

NC(=O)C(c1ccccc1)N1OC2C(=O)N(c3ccccc3)C(=O)C2C1c1c2ccccc2c(Cl)c2ccccc12 (stereo not given)
inactive: Hs-578T > 100 µM | UO-31 > 100 µM | SR > 100 µM | NCI-H522 > 100 µM | HL-60 > 100 µM | SF-539 > 100 µM | NCI/ADR-RES > 100 µM | SNB-75 > 100 µM | LOX IMVI > 100 µM | A549 > 100 µM | OVCAR-5 > 100 µM | HCT-116 > 100 µM | IGROV-1 > 100 µM | OVCAR-4 > 100 µM | SF-295 > 100 µM | EKVX > 100 µM | Malme-3M > 100 µM | MDA-MB-231 > 100 µM | BT-549 > 100 µM | T47D > 100 µM

O=C(O)CC1NCc2cc3ccccc3nc21 (stereo not given)
inactive: Hs-578T > 100 µM | UO-31 > 100 µM | SR > 100 µM | NCI-H522 > 100 µM | HL-60 > 100 µM | SF-539 > 100 µM | NCI/ADR-RES > 100 µM | SNB-75 > 100 µM | LOX IMVI > 100 µM | A549 > 100 µM | OVCAR-5 > 100 µM | HCT-116 > 100 µM | IGROV-1 > 100 µM | OVCAR-4 > 100 µM | SF-295 > 100 µM | EKVX 61.9 µM | Malme-3M > 100 µM | MDA-MB-231 > 100 µM | BT-549 > 100 µM | T47D > 100 µM

CC(=O)N(C)SCC(NC(=O)C(Cc1ccccc1)NC(=O)OCc1ccccc1)C(=O)NC(Cc1ccccc1)C(=O)NC(Cc1cn(C=O)c2ccccc12)C(=O)NC(CCCCNC(=O)OCc1ccccc1)C(=O)NC(C(=O)NC(CSN(C)C(C)=O)C(=O)NC(C(N)=O)C(C)OCc1ccccc1)C(C)OCc1ccccc1 (stereo not given) (Cbz-F[X34]FW(For)K(Cbz)T(Bn)[X34]T(Bn)-NH2; configuration not given here)
inactive: Hs-578T 8.63 µM | UO-31 45.7 µM | SR > 100 µM | NCI-H522 87.9 µM | HL-60 > 100 µM | SF-539 44 µM | NCI/ADR-RES > 100 µM | SNB-75 11.3 µM | LOX IMVI > 100 µM | A549 > 100 µM | OVCAR-5 > 100 µM | HCT-116 61.5 µM | IGROV-1 68.9 µM | OVCAR-4 54.2 µM | SF-295 16.1 µM | EKVX > 100 µM | Malme-3M 40.4 µM | MDA-MB-231 14.7 µM | BT-549 21.1 µM | T47D > 100 µM
